Assay results from ChEMBL document CHEMBL1201862, “PubChem BioAssay data set” (2004).
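1) Cells in 96-well plates. 2) Compound, 48 h, 5 concentrations. 3) Linear interpolation between surrounding doses. 4) Unreached endpoint = highest concentration. GI50: concentration for 50% inhibition of growth.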 Calls of active or inactive are those of the source. Rule as the data show it: active = GI50 up to about 1.1 µM and inactive = higher.

Tests used:
Assay in all cases: growth of human tumour cells (NCI), 48 h
OVCAR-4 = test system: OVCAR-4
OVCAR-8 = test system: OVCAR-8
SF-268 = test system: SF-268
SN12C = test system: SN12C
NCI-H460 = test system: NCI-H460
U-251 = test system: U-251
786-0 = test system: 786-0
UO-31 = test system: UO-31
M14 = test system: M14
Malme-3M = test system: Malme-3M
NCI-H522 = test system: NCI-H522
SK-MEL-2 = test system: SK-MEL-2
TK-10 = test system: TK-10
IGROV-1 = test system: IGROV-1
HCC 2998 = test system: HCC 2998
HT-29 = test system: HT-29

Measured: GI50

COc1ccc2c3c1C(=O)CCCC3CO2 (configuration not stated)
inactive: OVCAR-4 > 100 µM | OVCAR-8 > 100 µM | SF-268 > 100 µM | SN12C > 100 µM | NCI-H460 > 100 µM | U-251 > 100 µM | 786-0 > 100 µM | UO-31 > 100 µM | M14 > 100 µM | Malme-3M > 100 µM | NCI-H522 > 100 µM | SK-MEL-2 > 100 µM | TK-10 > 100 µM | IGROV-1 > 100 µM | HCC 2998 > 100 µM | HT-29 > 100 µM

CCOC(=O)C1=C(O)C(=O)c2c(OC)ccc(OC)c2C1=O
inactive: OVCAR-4 > 100 µM | OVCAR-8 > 100 µM | SF-268 > 100 µM | SN12C > 100 µM | NCI-H460 > 100 µM | U-251 > 100 µM | 786-0 > 100 µM | UO-31 > 100 µM | M14 > 100 µM | Malme-3M > 100 µM | NCI-H522 > 100 µM | SK-MEL-2 > 100 µM | TK-10 > 100 µM | IGROV-1 > 100 µM | HCC 2998 > 100 µM | HT-29 > 100 µM

Cc1ccc(NC(=O)CC2C(=O)Nc3ccccc3S2(=O)=O)c(C)c1 (configuration not stated)
inactive: OVCAR-4 18.7 µM | OVCAR-8 18.2 µM | SF-268 20.3 µM | SN12C 18.6 µM | NCI-H460 16 µM | U-251 12.7 µM | 786-0 18.3 µM | UO-31 18.8 µM | M14 11.2 µM | Malme-3M 12.9 µM | NCI-H522 10.9 µM | SK-MEL-2 29 µM | TK-10 25.9 µM | IGROV-1 12.4 µM | HCC 2998 13.4 µM | HT-29 13.5 µM

CC(=O)CC(N)=O
inactive: OVCAR-4 > 100 µM | OVCAR-8 > 100 µM | SF-268 > 100 µM | SN12C > 100 µM | NCI-H460 > 100 µM | U-251 > 100 µM | 786-0 > 100 µM | UO-31 > 100 µM | M14 > 100 µM | Malme-3M > 100 µM | NCI-H522 > 100 µM | SK-MEL-2 > 100 µM | TK-10 > 100 µM | IGROV-1 > 100 µM | HCC 2998 > 100 µM | HT-29 > 100 µM

O=C1c2ccccc2C(=O)C12CCc1ccccc12
inactive: OVCAR-4 > 100 µM | OVCAR-8 > 100 µM | SF-268 > 100 µM | SN12C > 100 µM | NCI-H460 > 100 µM | U-251 > 100 µM | 786-0 > 100 µM | UO-31 > 100 µM | M14 > 100 µM | Malme-3M > 100 µM | TK-10 > 100 µM | IGROV-1 > 100 µM | HCC 2998 > 100 µM | HT-29 > 100 µM

O=c1ncccn1C1C=C(CO)C(O)C1O (configuration not stated)
inactive: OVCAR-4 > 50 µM | SF-268 > 50 µM | NCI-H460 > 50 µM | U-251 > 50 µM | 786-0 > 50 µM | UO-31 > 50 µM | M14 > 50 µM | Malme-3M > 50 µM | NCI-H522 > 50 µM | SK-MEL-2 > 50 µM | TK-10 > 50 µM | HCC 2998 > 50 µM | HT-29 > 50 µM

COc1c(CC(C)=O)c2ccccc2n1C(C)=O
inactive: OVCAR-4 > 100 µM | OVCAR-8 > 100 µM | SN12C > 100 µM | NCI-H460 > 100 µM | U-251 > 100 µM | 786-0 > 100 µM | UO-31 > 100 µM | M14 > 100 µM | SK-MEL-2 > 100 µM | IGROV-1 > 100 µM | HCC 2998 > 100 µM | HT-29 > 100 µM

O=C(CSc1nnc(Cc2ccccc2)o1)Nc1ccccc1
inactive: OVCAR-4 > 100 µM | OVCAR-8 > 100 µM | SF-268 > 100 µM | SN12C > 100 µM | NCI-H460 > 100 µM | U-251 > 100 µM | 786-0 > 100 µM | UO-31 > 100 µM | M14 > 100 µM | Malme-3M > 100 µM | NCI-H522 > 100 µM | SK-MEL-2 > 100 µM | TK-10 > 100 µM | IGROV-1 > 100 µM | HCC 2998 > 100 µM | HT-29 > 100 µM

CC(=O)c1c2c(cc3c1CC1(C3)Cc3cc4c(c(C(C)=O)c3C1)CCC4)CCC2
inactive: OVCAR-4 > 100 µM | OVCAR-8 > 100 µM | SF-268 > 100 µM | SN12C > 100 µM | NCI-H460 > 100 µM | U-251 > 100 µM | 786-0 > 100 µM | UO-31 > 100 µM | M14 > 100 µM | Malme-3M 40.3 µM | NCI-H522 > 100 µM | TK-10 > 100 µM | IGROV-1 > 100 µM | HCC 2998 > 100 µM | HT-29 > 100 µM

NC(=O)CCC(NC(=O)Cc1ccccc1)C(=O)O (configuration not stated)
inactive: OVCAR-4 1390 µM | OVCAR-8 > 2470 µM | SF-268 1420 µM | SN12C > 2470 µM | U-251 2000 µM | 786-0 > 2470 µM | UO-31 667 µM | M14 > 2470 µM | Malme-3M 1530 µM | NCI-H522 841 µM | SK-MEL-2 > 2470 µM | TK-10 2120 µM | IGROV-1 1610 µM | HCC 2998 > 2470 µM | HT-29 > 2470 µM

COC1C2c3ccccc3C(C#N)(Cc3ccc4c(c32)OCO4)N1C(=O)c1ccccc1 (configuration not stated)
inactive: OVCAR-8 84.9 µM | SF-268 > 100 µM | SN12C > 100 µM | NCI-H460 25.9 µM | U-251 37.7 µM | 786-0 98.6 µM | UO-31 31.7 µM | M14 26.6 µM | Malme-3M 37.8 µM | NCI-H522 10.5 µM | SK-MEL-2 46.8 µM | TK-10 > 100 µM | IGROV-1 13 µM | HCC 2998 37.9 µM | HT-29 48 µM

CC(C)CN1CC(C)C(=O)NC1=O (configuration not stated)
inactive: OVCAR-4 > 100 µM | OVCAR-8 > 100 µM | SF-268 > 100 µM | SN12C > 100 µM | NCI-H460 > 100 µM | U-251 > 100 µM | 786-0 > 100 µM | UO-31 > 100 µM | Malme-3M > 100 µM | NCI-H522 > 100 µM | SK-MEL-2 > 100 µM | TK-10 > 100 µM | HT-29 > 100 µM

O=S(O)CCCCCSSCCCCSSCCCCCS(=O)O
inactive: OVCAR-4 > 100 µM | OVCAR-8 > 100 µM | SF-268 > 100 µM | SN12C > 100 µM | NCI-H460 > 100 µM | U-251 > 100 µM | 786-0 > 100 µM | UO-31 85.3 µM | M14 > 100 µM | Malme-3M 27.7 µM | NCI-H522 64.9 µM | SK-MEL-2 > 100 µM | TK-10 > 100 µM | IGROV-1 > 100 µM | HT-29 > 100 µM
